The results in this text go back to paper PMC3632010, “V101L of human formyl peptide receptor 1 (FPR1) increases receptor affinity and augments the antagonism mediated by cyclosporins” (Biochemical Journal, 2013).

The target in assay [1] is T1, FPR1 haplotype CH1 (Homo sapiens, UniProt P21462, E346A/I11T/V101L).
T1 construct: Vectors including FPR1 ORFs were transfected into CHO-Gα16 cells; expressed in transfected cells
T1 sequence (P21462 1-350 I11T/V101L/E346A): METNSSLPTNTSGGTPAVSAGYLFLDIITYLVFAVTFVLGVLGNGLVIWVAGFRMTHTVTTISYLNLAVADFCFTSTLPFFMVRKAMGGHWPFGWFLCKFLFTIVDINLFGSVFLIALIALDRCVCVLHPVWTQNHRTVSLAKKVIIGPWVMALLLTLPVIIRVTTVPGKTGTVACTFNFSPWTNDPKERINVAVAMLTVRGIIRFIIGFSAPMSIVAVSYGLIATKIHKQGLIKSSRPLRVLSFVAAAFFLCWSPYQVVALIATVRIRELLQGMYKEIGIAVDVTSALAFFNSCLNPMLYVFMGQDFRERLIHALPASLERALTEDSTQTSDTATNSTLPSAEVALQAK
Put plainly: FACScan saturation binding of fNLFNYK–FITC, CH1 cells. The following applies: CHO-Gα16 cells, 4°C, 1 h.
Protocol: (§1) Stable clones expressing FPR1 haplotypes were selected after 10 days of culture under the selection of 600 μg/ml G418 and identified by FACScan analysis after binding of 20 nM of the fluorescent ligand fNLFNYK–FITC to the CHO cell transfectants for 45 min at 4°C.
(§2) CHO cells were added to 3 mM KCl, 100 mM NaCl, 10 mM sodium phosphate, 1 mM Mg^2+ and 1 mM Ca^2+, pH 7.4, containing 5% fetal bovine serum and incubated at 4°C for 1 h with various concentrations of fNLFNYK–FITC. The mean fluorescence of the cells was determined after subtracting the readout of cells without fNLFNYK–FITC. The results were analysed by non-linear least squares analysis to determine Kd and Bmax values. […] Data from at least two different experiments in duplicate were analysed.

Assay [2] has as its target T2, FPR1 haplotype CH2 (Homo sapiens, UniProt P21462, E346A/I11T).
T2 construct: Vectors including FPR1 ORFs were transfected into CHO-Gα16 cells; expressed in transfected cells
T2 sequence (P21462 1-350 I11T/E346A): T1 sequence (P21462 1-350 I11T/V101L/E346A) with L101V
Put plainly: FACScan saturation binding of fNLFNYK–FITC, CH2 cells. The following applies: CHO-Gα16 cells, 4°C, 1 h.
Protocol: as §1, §2

The target of assay [3] is T3, FPR1 haplotype CH3 (Homo sapiens, UniProt P21462, E346A/I11T/N192K).
T3 construct: Vectors including FPR1 ORFs were transfected into CHO-Gα16 cells; expressed in transfected cells
T3 sequence (P21462 1-350 I11T/N192K/E346A): T1 sequence (P21462 1-350 I11T/V101L/E346A) with L101V, N192K
Put plainly: FACScan saturation binding of fNLFNYK–FITC, CH3 cells. The following applies: CHO-Gα16 cells, 4°C, 1 h.
Protocol: as §1, §2

Assay [4] addresses T4, FPR1 haplotype CH4 (Homo sapiens, UniProt P21462, I11T).
T4 construct: Vectors including FPR1 ORFs were transfected into CHO-Gα16 cells; expressed in transfected cells
T4 sequence (P21462 1-350 I11T): T1 sequence (P21462 1-350 I11T/V101L/E346A) with L101V, A346E
As to the kind of experiment: FACScan saturation binding of fNLFNYK–FITC, CH4 cells. Conditions: CHO-Gα16 cells, 4°C, 1 h.
Protocol: as §1, §2

Assay [5] has as its target T5, FPR1 haplotype CH5 (Homo sapiens, UniProt P21462, E346A/I11T/N192K/V101L).
T5 construct: Vectors including FPR1 ORFs were transfected into CHO-Gα16 cells; expressed in transfected cells
T5 sequence (P21462 1-350 I11T/V101L/N192K/E346A): T1 sequence (P21462 1-350 I11T/V101L/E346A) with N192K
As to the kind of experiment: FACScan saturation binding of fNLFNYK–FITC, CH5 cells. The following applies: CHO-Gα16 cells, 4°C, 1 h.
Protocol: as §1, §2

In assay [6] the target is T6, FPR1 haplotype CH6 (Homo sapiens, UniProt P21462, E346A/I11T/R190W).
T6 construct: Vectors including FPR1 ORFs were transfected into CHO-Gα16 cells; expressed in transfected cells
T6 sequence (P21462 1-350 I11T/R190W/E346A): T1 sequence (P21462 1-350 I11T/V101L/E346A) with L101V, R190W
As to the kind of experiment: FACScan saturation binding of fNLFNYK–FITC, CH6 cells. Conditions: CHO-Gα16 cells, 4°C, 1 h.
Protocol: as §1, §2

The test system of assay [7] is FPR1 haplotype CH7. Put plainly: FACScan saturation binding of fNLFNYK–FITC, CH7 cells. Details: species or system human. Conditions: CHO-Gα16 cells, 4°C, 1 h.
Protocol: as §1, §2
For assay [8], the target named is T7, FPR1 haplotype CH8 (Homo sapiens, UniProt P21462, I11T/V101L).
T7 construct: Vectors including FPR1 ORFs were transfected into CHO-Gα16 cells; expressed in transfected cells
T7 sequence (P21462 1-350 I11T/V101L): T1 sequence (P21462 1-350 I11T/V101L/E346A) with A346E
Put plainly: FACScan saturation binding of fNLFNYK–FITC, CH8 cells. The following applies: CHO-Gα16 cells, 4°C, 1 h.
Protocol: as §1, §2

The target of assay [9] is T8, FPR1 haplotype CH9 (Homo sapiens, UniProt P21462, E346A/I11T/R190W/V101L).
T8 construct: expressed in transfected cells
T8 sequence (P21462 1-350 I11T/V101L/R190W/E346A): T1 sequence (P21462 1-350 I11T/V101L/E346A) with R190W
As to the kind of experiment: FACScan saturation binding of fNLFNYK–FITC, CH9 cells. The following applies: CHO-Gα16 cells, 4°C, 1 h.
Protocol: as §1, §2

The test system of assay [10] is FPR1 haplotype CH10. As to the kind of experiment: FACScan saturation binding of fNLFNYK–FITC, CH10 cells. Conditions: CHO-Gα16 cells, 4°C, 1 h. The arrangement: species or system human.
Protocol: as §1, §2
For assay [11], the target named is T9, FPR1 haplotype CH11 (Homo sapiens, UniProt P21462).
T9 construct: expressed in transfected cells
T9 sequence (P21462 1-350): T1 sequence (P21462 1-350 I11T/V101L/E346A) with T11I, L101V, A346E
Put plainly: FACScan saturation binding of fNLFNYK–FITC, CH11 cells. Conditions: CHO-Gα16 cells, 4°C, 1 h.
Protocol: (§3) Transfection of FPR1 haplotype cDNAs into CHO-Gα16 cells was carried out with the Gene Pulser Xcell Electroporation System from Bio-Rad Laboratories. […] Vectors containing the ORFs of the human FPR1 gene (8 μg in a volume of 8 μl) were added to the cells. Following a 280 V and 20 ms pulse (squarewave), the cells were immediately returned to 10 ml of culture medium and incubated for 24 h. Stable clones expressing FPR1 haplotypes were selected after 10 days of culture under the selection of 600 μg/ml G418 and identified by FACScan analysis after binding of 20 nM of the fluorescent ligand fNLFNYK–FITC to the CHO cell transfectants for 45 min at 4°C.
as §2

Assay [12] concerns the target T10, FPR1 haplotype CH12 (Homo sapiens, UniProt P21462, V101L).
T10 construct: expressed in transfected cells
T10 sequence (P21462 1-350 V101L): T1 sequence (P21462 1-350 I11T/V101L/E346A) with T11I, A346E
As to the kind of experiment: FACScan saturation binding of fNLFNYK–FITC, CH12 cells. Conditions: CHO-Gα16 cells, 4°C, 1 h.
Protocol: as §1, §2

The test system of assay [13] is FPR1 haplotypes. Put plainly: FACScan binding of fNLFNYK–FITC, different FPR1 haplotypes. Details: species or system human. The following applies: different FPR1 haplotypes CH1–CH12.
Protocol: as §3, §2
In assay [14] the test system is CHO-Gα16-FPR1 cells. As to the kind of experiment: fMLF-induced ERK1/2 phosphorylation, CHO-Gα16-FPR1 cells. It is filed as cell-based, human. Conditions: fMLF 10 nM, 5 min, Western blot. Background: A western blot detects proteins with antibodies after separation by electrophoresis.
Protocol: Activation of the p44/p42 MAPKs (ERK1/2) was determined as described previously [12] with modest modifications. Briefly, cells were cultured in 24-well plates at 5×10^5 cells/well for 24 h and serum starved for 2 h. They were pretreated with the indicated amounts of cyclosporins for 5 min before fMLF (10 nM) stimulation in HBSS/BSA. […] Samples were transferred to microcentrifuge tubes and sonicated twice for 5 s each to disperse DNA contents. After boiling, samples were analysed by SDS/PAGE and Western blotting using anti-ERK1/2 and anti-phospho-ERK1/2 antibodies at a 1:1000 dilution. Horseradish peroxidase-conjugated anti-rabbit antibody (1:3000 dilution) was used as the secondary antibody. The resulting immunocomplex was visualized using the SuperSignal West Pico chemiluminescence kit (Pierce Biotechnology) according to the manufacturer's instructions. The relative intensities of the bands from the PVDF membrane (Millipore) were quantified using the ChemDoc MP System (Bio-Rad) and Image-Pro Plus software (MediaCybernetics).
The subject of assay [15] is CHO-Gα16-FPR1 haplotype-expressing cells. Put plainly: Calcium mobilization by fMLF, four cell lines. The assay is classed as cell-based, human. The following applies: CH1, CH2, CH3 and CH5 cells; different concentrations of fMLF. (Calcium assays in cells follow changes in intracellular calcium, usually with a dye or a luminescent sensor.)
Protocol: A calcium mobilization assay was performed as described previously with minor modifications [33]. Briefly, CHO-Gα16-FPR1 cells were plated on to 96-well plates at a density of 15000 cells in 100 μl of medium per well and incubated for 24 h. Cells were loaded with 5 μM Fluo-4/AM in HBSS (Hanks balanced saline solution) supplemented with 2.5 mM probenecid for 45 min and then washed twice with HBSS.

Changes are numbered by the printed parent chain. Where “and” joins values, the source holds several entries; their conditions need not be identical. Equal entries are not always repeated. Square brackets hold non-standard residues; d marks the D form. Peptide text beside a SMILES is read from it. * marks the point of attachment. FITC = O=C1OC2(c3ccc(O)cc3Oc3cc(O)ccc32)c2ccc(NC(=S)*)cc21; Nle = CCCC[C@H](N)C(=O)O; For = O=C*

As to `CCCC[C@H](NC=O)C(=O)N[C@@H](CC(C)C)C(=O)N[C@@H](Cc1ccccc1)C(=O)N[C@@H](CCCC)C(=O)N[C@@H](Cc1ccc(O)cc1)C(=O)N[C@@H](CCCCNC(=S)Nc1ccc2c(c1)C(=O)OC21c2ccc(O)cc2Oc2cc(O)ccc21)C(=O)O` [fNLFNYK–FITC, N-formyl-Nle-Leu-Phe-Nle-Tyr-Lys–FITC] (For-[Nle]LF[Nle]YK(FITC)-OH; N-terminus and C-terminus assumed), the Bmax was 48336±4553 in assay [1]; 47657±9098 in [2]; 59135±4185 in [3]; 33860 and 33860±4977 in [4]; 42575±4902 in [5]; 34093±693 in assay [6]. The Bmax in assay [7] (CH7, FACScan) was 60688±10388; in assay [8], 36362±353; in assay [9], 39009±6672; in assay [10] (CH10, FACScan) it was 41751±615; in assay [11], 37713±5841; in assay [12] it was 65059 and 65059±3570. Also, the Kd in [7] (CH7 (T11/V101/R190/K192/E346), pH 7.4, FACScan, at least two experiments in duplicate) came to 1.7 ± 0.3 nM; in assay [10] (CH10 (T11/L101/W190/N192/E346), pH 7.4, FACScan, at least two experiments in duplicate), 2.4 ± 0.3 nM. The “receptor affinity of fNLFNYK–FITC (in words)” value in [13] is reported as “varied moderately”.
Take “N-formyl-methionyl-leucyl-phenylalanine [fMLF]”: the “phosphorylation of ERK1/2 (in words)” value in assay [14] is “significant increase”. In addition, the “calcium mobilization (in words)” value in assay [15] is listed as “elicited calcium mobilization dose-dependently”.

Usually Kd stands for the constant that tells how readily two partners part at equilibrium. Low readings indicate a tighter complex, high ones a looser complex.
